± gives the expanded uncertainty stated by the source. Blank lines part the entries; values can stand above or below the compound they belong to.
Key:
[1] = 298.15 K, Liquid
[2] = mn = molality of the nth substance listed, in mol/kg; conditions: 298.15 K, 100 kPa, Liquid, Vibrating tube method

Compound: CCCCCCC [heptane]
mass density ([1]; 101.33 kPa, Pycnometric method): 679.455 ± 0.22 kg/m3

Compound: CO [methanol]
mass density ([1]; 100 kPa, Vibrating tube method): 786.57 ± 0.33 kg/m3

Compound: CO [methanol] + CCC(C)CC
mass density ([2]; m2 = 0): 786.57 ± 0.33 kg/m3

Compound: CO [methanol] + CCCC(C)C
mass density ([2]; m2 = 0): 786.57 ± 0.33 kg/m3

Compound: CO [methanol] + CCCCCC(C)C
mass density ([2]; m2 = 0): 786.57 ± 0.33 kg/m3

Compound: Cc1ccccc1 [toluene]
mass density ([1]; 101.33 kPa, Pycnometric method): 862.214 ± 0.26 kg/m3

More lines, now with the values ahead:

mass density ([1]; 100 kPa, Vibrating tube method): 693.9 ± 1.4 kg/m3
Compound: CCCCCC(C)C [2-methylheptane]

mass density ([2]; m1 = 0.1174): 784.76 ± 0.33 kg/m3
mass density ([2]; m1 = 0.1406): 784.42 ± 0.33 kg/m3
mass density ([2]; m1 = 0.2155): 783.3 ± 0.33 kg/m3
mass density ([2]; m1 = 0.3711): 781.09 ± 0.33 kg/m3
mass density ([2]; m1 = 0.4177): 780.47 ± 0.33 kg/m3
mass density ([2]; m1 = 0.4497): 780.04 ± 0.33 kg/m3
mass density ([2]; m1 = 0.5259): 779.01 ± 0.33 kg/m3
mass density ([2]; m1 = 0.5815): 778.29 ± 0.34 kg/m3
mass density ([2]; m1 = 0.639): 777.54 ± 0.34 kg/m3
mass density ([2]; m1 = 0.7339): 776.35 ± 0.34 kg/m3
Compound: CCCCCC(C)C [2-methylheptane] + CO

mass density ([1]; 100 kPa, Vibrating tube method): 648.48 ± 0.67 kg/m3
Compound: CCCC(C)C [2-methylpentane]

mass density ([2]; m1 = 0.02577): 786.15 ± 0.33 kg/m3
mass density ([2]; m1 = 0.09112): 785.08 ± 0.33 kg/m3
mass density ([2]; m1 = 0.1002): 784.95 ± 0.33 kg/m3
mass density ([2]; m1 = 0.1267): 784.51 ± 0.33 kg/m3
mass density ([2]; m1 = 0.1833): 783.59 ± 0.33 kg/m3
mass density ([2]; m1 = 0.2247): 782.95 ± 0.33 kg/m3
mass density ([2]; m1 = 0.2392): 782.73 ± 0.33 kg/m3
mass density ([2]; m1 = 0.3355): 781.24 ± 0.33 kg/m3
mass density ([2]; m1 = 0.3506): 781.02 ± 0.33 kg/m3
mass density ([2]; m1 = 0.3833): 780.53 ± 0.33 kg/m3
mass density ([2]; m1 = 0.4498): 779.5 ± 0.33 kg/m3
mass density ([2]; m1 = 0.4937): 778.85 ± 0.34 kg/m3
mass density ([2]; m1 = 0.5032): 778.68 ± 0.34 kg/m3
mass density ([2]; m1 = 0.5629): 777.84 ± 0.34 kg/m3
mass density ([2]; m1 = 0.6343): 776.78 ± 0.34 kg/m3
Compound: CCCC(C)C [2-methylpentane] + CO

mass density ([1]; 100 kPa, Vibrating tube method): 659.76 ± 0.68 kg/m3
Compound: CCC(C)CC [3-methylpentane]

mass density ([2]; m1 = 0.02902): 786.12 ± 0.33 kg/m3
mass density ([2]; m1 = 0.04025): 785.97 ± 0.33 kg/m3
mass density ([2]; m1 = 0.06079): 785.65 ± 0.33 kg/m3
mass density ([2]; m1 = 0.07925): 785.37 ± 0.33 kg/m3
mass density ([2]; m1 = 0.1106): 784.93 ± 0.33 kg/m3
mass density ([2]; m1 = 0.2045): 783.51 ± 0.33 kg/m3
mass density ([2]; m1 = 0.307): 782.05 ± 0.33 kg/m3
mass density ([2]; m1 = 0.3825): 781.03 ± 0.33 kg/m3
mass density ([2]; m1 = 0.3944): 780.81 ± 0.34 kg/m3
mass density ([2]; m1 = 0.4638): 779.87 ± 0.33 kg/m3
mass density ([2]; m1 = 0.5751): 778.42 ± 0.33 kg/m3
mass density ([2]; m1 = 0.6145): 777.81 ± 0.34 kg/m3
mass density ([2]; m1 = 0.7207): 776.46 ± 0.34 kg/m3
Compound: CCC(C)CC [3-methylpentane] + CO
